Consider nine molecules from ChEMBL document CHEMBL1201862, “PubChem BioAssay data set” (2004).

Test [1] addresses Voltage-dependent T-type calcium channel subunit alpha-1H (Homo sapiens, UniProt O95180). It is filed as functional.
The target in test [2] is T1, Short transient receptor potential channel 4 (Mus musculus, UniProt Q9QUQ5).
T1 sequence (Q9QUQ5 whole entry): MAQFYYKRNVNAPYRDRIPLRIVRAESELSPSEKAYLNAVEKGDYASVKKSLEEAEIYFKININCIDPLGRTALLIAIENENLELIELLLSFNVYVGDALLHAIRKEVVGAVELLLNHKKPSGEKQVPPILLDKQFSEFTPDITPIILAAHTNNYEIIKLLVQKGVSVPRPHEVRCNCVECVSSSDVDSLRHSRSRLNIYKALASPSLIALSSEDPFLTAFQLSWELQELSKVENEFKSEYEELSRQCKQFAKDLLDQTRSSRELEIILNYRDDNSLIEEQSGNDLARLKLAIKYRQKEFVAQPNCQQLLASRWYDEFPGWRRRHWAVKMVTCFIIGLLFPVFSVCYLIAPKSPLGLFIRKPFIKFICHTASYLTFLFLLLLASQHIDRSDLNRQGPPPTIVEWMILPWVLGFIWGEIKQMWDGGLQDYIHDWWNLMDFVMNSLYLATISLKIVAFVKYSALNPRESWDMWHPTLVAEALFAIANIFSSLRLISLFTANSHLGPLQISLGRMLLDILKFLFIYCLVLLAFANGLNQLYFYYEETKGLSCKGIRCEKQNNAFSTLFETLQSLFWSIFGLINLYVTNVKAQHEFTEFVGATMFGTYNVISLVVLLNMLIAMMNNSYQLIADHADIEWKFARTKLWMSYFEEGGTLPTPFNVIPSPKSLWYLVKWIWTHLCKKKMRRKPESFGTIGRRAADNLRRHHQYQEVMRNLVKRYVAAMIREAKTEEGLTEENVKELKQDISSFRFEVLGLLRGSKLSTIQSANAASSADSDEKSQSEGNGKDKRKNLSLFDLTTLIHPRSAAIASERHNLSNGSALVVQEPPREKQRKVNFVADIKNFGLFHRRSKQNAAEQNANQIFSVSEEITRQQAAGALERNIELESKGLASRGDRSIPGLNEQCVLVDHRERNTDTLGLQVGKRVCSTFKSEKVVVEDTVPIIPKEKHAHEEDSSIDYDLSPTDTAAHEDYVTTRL
Kind of test: mouse TRPC4 channel inhibitors, dose response, cell-based, HEK293 TRPC4/mu-opioid, Fluo-4 calcium (AID 434942).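 Further: potency of inhibitors blocking the TRPC4 calcium response.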 It is filed as functional.

The nature of test [3]: growth suppression of beta-catenin-knockout colon cells, dose response, cell-based, HCT116, human colon tumor (AID 1045).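 Further: HCT116 colon tumor cells with beta catenin knocked out; cells exposed to compound for 60 hours.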 It is filed as functional.
For test [4], the target named is G-protein coupled receptor 35 (Homo sapiens, UniProt Q9HC97). In words: GPR35 antagonists blocking zaprinast-driven arrestin recruitment, primary screen, imaging, U2OS, beta-arrestin-GFP, zaprinast agonist (AID 2058).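 Further: antagonist potency meaning inhibition of agonist-induced arrestin redistribution.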 Format: functional.
G-protein coupled receptor 35, sequence (Q9HC97 whole entry): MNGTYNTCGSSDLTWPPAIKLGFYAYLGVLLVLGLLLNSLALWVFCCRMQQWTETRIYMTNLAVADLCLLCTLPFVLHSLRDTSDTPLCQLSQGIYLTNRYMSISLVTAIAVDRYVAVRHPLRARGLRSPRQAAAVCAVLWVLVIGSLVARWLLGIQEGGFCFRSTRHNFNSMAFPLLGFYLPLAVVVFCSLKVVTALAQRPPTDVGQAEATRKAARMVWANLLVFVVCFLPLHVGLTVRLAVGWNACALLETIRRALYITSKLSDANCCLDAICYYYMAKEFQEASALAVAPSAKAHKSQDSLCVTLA
The target in test [5] is T2, RNA-binding protein pos-1 (Caenorhabditis elegans, UniProt G5EF15).
T2 sequence (G5EF15 whole entry): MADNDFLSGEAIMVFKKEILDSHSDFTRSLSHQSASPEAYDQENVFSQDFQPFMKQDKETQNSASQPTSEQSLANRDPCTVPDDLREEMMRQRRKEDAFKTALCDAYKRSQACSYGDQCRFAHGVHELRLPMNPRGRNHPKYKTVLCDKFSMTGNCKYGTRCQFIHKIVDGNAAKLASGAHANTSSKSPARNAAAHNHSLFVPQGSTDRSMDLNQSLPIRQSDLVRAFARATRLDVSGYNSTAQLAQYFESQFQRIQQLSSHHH
Kind of test: inhibitors of POS-1/mex-3 RNA binding, dose response, biochemical, fluorescence polarization (AID 1964).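 Further: purified POS-1 fused to maltose binding protein made in E. coli; potency of compounds blocking POS-1 binding to fluorescent RNA.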

The target in test [6] is T3, Zinc finger protein mex-5 (Caenorhabditis elegans, UniProt Q9XUB2).
T3 sequence (Q9XUB2 whole entry): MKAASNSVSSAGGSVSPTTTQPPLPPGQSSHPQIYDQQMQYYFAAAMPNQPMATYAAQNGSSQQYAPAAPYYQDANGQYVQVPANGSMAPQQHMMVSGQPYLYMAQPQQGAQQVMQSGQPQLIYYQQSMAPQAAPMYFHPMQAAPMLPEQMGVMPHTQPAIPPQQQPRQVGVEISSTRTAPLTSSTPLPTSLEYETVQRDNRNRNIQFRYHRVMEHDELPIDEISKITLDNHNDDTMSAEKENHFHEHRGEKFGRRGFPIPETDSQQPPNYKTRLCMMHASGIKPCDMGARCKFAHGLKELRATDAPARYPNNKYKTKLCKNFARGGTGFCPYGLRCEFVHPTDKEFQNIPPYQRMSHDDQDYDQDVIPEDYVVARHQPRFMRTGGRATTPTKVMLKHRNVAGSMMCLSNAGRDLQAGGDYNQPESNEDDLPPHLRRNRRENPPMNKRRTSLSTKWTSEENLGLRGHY
In words: MEX-5/TCR-2 RNA interaction inhibitors, dose response, biochemical, C. elegans, fluorescence polarization (AID 1960).

Test [7] in a line: growth suppression of PTEN-null colon cells, dose response, cell-based, HCT116 PTEN knockout (AID 1047).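 Further: HCT116 colon tumor cells with PTEN knocked out; cells exposed to compound for 60 hours before readout; potency for loss of cell viability measured by luminescence.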 Format: functional.
A further test concerns the target T4, Protein RecA (Mycobacterium tuberculosis, UniProt P9WHJ3).
T4 sequence (P9WHJ3 whole entry): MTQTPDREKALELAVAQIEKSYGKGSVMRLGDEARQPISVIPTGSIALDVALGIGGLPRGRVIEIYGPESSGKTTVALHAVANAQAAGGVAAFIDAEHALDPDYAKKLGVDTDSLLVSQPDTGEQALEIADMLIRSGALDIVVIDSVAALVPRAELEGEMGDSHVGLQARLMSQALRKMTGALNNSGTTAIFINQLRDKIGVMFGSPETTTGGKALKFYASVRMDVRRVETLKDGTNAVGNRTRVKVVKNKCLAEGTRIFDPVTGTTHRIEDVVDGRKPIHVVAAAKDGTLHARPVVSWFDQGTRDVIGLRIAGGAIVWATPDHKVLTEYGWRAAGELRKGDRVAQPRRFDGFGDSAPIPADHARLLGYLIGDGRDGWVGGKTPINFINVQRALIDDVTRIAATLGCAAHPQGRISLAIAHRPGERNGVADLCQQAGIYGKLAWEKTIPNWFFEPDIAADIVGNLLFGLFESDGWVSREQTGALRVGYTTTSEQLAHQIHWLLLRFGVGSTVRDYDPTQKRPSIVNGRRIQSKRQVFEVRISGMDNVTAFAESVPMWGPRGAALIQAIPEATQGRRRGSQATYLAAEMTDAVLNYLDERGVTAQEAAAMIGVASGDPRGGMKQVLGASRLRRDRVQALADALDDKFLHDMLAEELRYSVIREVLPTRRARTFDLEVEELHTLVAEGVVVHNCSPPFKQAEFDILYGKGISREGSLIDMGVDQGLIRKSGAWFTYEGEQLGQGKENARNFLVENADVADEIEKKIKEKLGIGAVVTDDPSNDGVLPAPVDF
In words: Fluorescence Cell-Free Homogeneous Dose Retest to Identify Inhibitors of RecA-Intein Splicing Activity. [Related pubchem assays (depositor defined):AID2097, AID2223, AID489010, AID492950]. It is filed as functional.

The target of test [8] is T5, Replicative DNA helicase DnaB (Mycobacterium tuberculosis, UniProt P9WMR3).
T5 sequence (P9WMR3 whole entry): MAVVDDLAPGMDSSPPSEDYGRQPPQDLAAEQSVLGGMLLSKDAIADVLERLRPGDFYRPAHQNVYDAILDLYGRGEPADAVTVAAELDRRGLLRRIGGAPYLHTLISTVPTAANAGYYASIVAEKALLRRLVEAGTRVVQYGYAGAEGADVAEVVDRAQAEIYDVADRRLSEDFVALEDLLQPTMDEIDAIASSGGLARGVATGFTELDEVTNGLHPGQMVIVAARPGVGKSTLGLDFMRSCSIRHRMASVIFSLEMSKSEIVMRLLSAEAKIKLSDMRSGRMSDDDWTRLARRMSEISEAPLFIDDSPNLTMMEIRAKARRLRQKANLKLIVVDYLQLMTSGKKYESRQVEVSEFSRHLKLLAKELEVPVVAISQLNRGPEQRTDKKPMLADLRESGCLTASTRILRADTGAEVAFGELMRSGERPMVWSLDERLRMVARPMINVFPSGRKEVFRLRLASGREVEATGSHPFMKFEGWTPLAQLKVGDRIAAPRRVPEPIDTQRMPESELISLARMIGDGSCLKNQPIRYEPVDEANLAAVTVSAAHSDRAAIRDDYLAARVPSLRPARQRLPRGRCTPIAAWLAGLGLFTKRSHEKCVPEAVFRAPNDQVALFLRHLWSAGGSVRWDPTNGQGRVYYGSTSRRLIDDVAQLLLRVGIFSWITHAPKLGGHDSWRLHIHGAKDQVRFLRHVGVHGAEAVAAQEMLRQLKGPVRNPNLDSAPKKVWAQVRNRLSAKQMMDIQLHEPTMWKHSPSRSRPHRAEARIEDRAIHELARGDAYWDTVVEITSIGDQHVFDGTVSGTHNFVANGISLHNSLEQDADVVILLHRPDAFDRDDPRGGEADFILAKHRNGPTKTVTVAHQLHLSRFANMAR
Kind of test: DnaB intein splicing inhibitors, dose response, biochemical, cell-free fluorescence (AID 449749). Format: functional.

Test [9] has as its target T1, Short transient receptor potential channel 4. In words: mouse TRPC4 channel activators, dose response, cell-based, HEK293 TRPC4/mu-opioid, Fluo-4 calcium (AID 434937). It is filed as functional.
The target in test [10] is T6, Endoribonuclease toxin MazF (Escherichia coli K-12, UniProt P0AE70).
T6 sequence (P0AE70 whole entry): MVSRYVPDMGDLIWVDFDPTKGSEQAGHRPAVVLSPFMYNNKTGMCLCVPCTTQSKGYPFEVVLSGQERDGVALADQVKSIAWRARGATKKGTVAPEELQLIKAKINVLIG
In words: fluorescent RNA oligo signal without MazF, dose response, counter-screen for MazEF activator project, biochemical, fluorescence, single-stranded RNase substrate (AID 588502). Format: functional.

Test [11] has as its target T7, Corticotropin-releasing factor receptor 2/Corticotropin-releasing factor-binding protein (Homo sapiens, UniProt P24387+Q13324).
T7 sequence (Q13324 whole entry): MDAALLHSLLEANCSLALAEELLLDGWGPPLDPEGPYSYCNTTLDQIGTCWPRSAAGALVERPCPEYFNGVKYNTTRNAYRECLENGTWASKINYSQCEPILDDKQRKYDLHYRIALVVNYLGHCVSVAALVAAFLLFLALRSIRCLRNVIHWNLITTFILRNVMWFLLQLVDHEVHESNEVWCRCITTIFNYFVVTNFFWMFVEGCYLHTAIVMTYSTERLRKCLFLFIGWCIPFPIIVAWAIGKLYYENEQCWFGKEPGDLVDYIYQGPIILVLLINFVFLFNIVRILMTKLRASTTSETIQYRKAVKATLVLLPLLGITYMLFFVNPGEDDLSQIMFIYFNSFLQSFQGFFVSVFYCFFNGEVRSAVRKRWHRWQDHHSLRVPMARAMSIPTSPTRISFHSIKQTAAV
T7 sequence (P24387 whole entry): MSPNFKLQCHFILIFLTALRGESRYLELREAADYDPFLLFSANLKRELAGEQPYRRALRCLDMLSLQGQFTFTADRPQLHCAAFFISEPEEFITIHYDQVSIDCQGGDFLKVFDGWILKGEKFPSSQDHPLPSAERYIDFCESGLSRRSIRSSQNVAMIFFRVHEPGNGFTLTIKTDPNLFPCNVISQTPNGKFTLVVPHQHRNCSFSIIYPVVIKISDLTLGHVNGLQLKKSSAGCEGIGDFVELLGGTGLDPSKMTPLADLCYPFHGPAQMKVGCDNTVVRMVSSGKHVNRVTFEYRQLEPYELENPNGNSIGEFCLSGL
In words: activators of CRF receptor 2 with binding protein – uHTS hits, confirmation (AID 602473). It is filed as functional. The note with it: read-out: EC50_Mean.

Test [12] deals with T6, Endoribonuclease toxin MazF. In words: MazF toxin RNase activators, dose response, biochemical, fluorescence, single-stranded RNA substrate, uHTS hits (AID 588481). It is filed as functional.

Calls of active or inactive are those of the source.

Voltage-dependent T-type calcium channel subunit alpha-1H, sequence (O95180 whole entry): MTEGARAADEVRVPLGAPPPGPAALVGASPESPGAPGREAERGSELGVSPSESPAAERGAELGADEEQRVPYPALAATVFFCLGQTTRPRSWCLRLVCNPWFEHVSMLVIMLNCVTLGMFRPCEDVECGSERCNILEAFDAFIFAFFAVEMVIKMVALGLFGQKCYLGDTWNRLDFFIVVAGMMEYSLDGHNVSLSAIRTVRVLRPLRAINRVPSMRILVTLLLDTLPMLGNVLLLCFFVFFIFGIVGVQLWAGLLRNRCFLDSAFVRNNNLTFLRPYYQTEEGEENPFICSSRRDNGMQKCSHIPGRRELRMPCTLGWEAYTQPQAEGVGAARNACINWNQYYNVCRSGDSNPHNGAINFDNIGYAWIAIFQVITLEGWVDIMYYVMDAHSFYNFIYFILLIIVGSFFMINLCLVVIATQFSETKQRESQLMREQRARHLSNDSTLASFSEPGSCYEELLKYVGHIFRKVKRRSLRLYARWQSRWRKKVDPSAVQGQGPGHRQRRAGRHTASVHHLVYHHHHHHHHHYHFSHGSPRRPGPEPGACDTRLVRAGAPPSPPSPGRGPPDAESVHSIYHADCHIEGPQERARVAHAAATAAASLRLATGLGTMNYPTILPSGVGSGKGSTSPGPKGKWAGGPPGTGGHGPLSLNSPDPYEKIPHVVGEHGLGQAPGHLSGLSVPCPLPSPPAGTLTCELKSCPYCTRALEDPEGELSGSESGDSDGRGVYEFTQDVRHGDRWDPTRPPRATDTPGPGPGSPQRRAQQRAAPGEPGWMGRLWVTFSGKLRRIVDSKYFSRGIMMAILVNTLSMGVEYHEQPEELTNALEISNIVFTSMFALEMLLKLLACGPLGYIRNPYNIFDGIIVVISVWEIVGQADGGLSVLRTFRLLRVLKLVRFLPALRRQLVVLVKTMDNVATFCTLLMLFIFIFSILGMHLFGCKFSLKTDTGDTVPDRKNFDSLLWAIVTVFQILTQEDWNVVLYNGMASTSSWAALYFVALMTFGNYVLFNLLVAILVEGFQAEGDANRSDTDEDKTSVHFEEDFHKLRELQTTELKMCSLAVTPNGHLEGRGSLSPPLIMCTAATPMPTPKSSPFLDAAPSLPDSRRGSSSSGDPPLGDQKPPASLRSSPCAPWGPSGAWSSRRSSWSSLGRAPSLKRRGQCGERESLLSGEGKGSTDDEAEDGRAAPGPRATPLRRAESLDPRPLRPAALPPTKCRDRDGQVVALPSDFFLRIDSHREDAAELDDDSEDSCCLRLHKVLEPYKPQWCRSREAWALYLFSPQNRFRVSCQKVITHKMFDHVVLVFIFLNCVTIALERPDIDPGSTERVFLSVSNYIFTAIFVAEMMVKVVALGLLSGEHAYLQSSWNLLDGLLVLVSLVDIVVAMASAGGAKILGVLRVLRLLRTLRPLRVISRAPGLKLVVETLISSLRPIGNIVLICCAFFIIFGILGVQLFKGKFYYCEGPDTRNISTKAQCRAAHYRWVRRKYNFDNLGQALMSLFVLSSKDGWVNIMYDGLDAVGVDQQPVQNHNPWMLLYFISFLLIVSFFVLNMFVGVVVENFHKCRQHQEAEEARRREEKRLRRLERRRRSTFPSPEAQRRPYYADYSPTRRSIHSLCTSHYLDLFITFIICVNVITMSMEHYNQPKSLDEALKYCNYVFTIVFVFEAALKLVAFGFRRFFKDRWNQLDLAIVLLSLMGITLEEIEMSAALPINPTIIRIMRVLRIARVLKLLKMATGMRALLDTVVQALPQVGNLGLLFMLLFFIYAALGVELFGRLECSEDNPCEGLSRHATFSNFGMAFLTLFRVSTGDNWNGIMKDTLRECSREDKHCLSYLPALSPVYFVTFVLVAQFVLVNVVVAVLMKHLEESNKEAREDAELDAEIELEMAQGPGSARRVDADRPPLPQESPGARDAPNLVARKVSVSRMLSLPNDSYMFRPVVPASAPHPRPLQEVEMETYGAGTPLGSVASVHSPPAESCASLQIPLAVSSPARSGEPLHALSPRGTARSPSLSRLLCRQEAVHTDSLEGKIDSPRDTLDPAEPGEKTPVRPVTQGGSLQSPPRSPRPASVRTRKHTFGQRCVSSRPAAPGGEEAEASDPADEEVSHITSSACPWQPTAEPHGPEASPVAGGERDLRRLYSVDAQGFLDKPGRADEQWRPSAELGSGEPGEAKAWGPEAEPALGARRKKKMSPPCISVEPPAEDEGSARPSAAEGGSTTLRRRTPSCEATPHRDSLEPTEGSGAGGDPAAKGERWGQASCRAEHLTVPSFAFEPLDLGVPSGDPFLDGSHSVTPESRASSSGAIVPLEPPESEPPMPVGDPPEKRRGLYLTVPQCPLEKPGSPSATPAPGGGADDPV

For `Cc1ccccc1NC(=O)c1sc2nc3c(c(-c4ccco4)c2c1N)CCCC3`, the EC50 in [1] was 10.1 µM (active).

As to `CCOC(=O)C1CCCN(S(=O)(=O)c2ccc(OC)c3ccccc23)C1` (stereo unspecified), in test [1], the EC50 is 0.647 µM (active).

Regarding `CCCCc1nc(CN2CCCC(C(=O)c3ccc(SC)cc3)C2)c[nH]1` (stereo unspecified), the EC50 in test [2] is 1.88 µM (active).

As for `O=C(c1cccc(C(=O)N2CCN(c3ccccc3)CC2)c1)N1CCN(c2ccccc2)CC1`, in [2], the EC50 was 1.06 µM (active).

`CCN(CC)c1ccc(/C=C(/C#N)c2nc3ccccc3[nH]2)c(OC(C)C)c1`: the EC50 in test [3] was 11.1 µM (active); in test [5] it was 3.96 µM (active); in [1], 3.84 µM (active); in test [6], 8.13 µM (active); in [7], 11.2 µM (active). In addition, the IC50 in [4] was 1.19 µM (active).

Take `O=c1c(Cl)c(Cl)cnn1Cc1ccccc1Cl`: at Protein RecA, the EC50 is 7.78 µM (active). Also, the IC50 in test [4] was 2.16 µM (active). Also, the AC50 in test [8] is 15.5 µM (active).

For the molecule `CN(C)CCN(C(=O)C1CCCCC1)c1nc2cc3c(cc2s1)OCO3`, the figures for the EC50 in test [9] and in test [2] were 6.68 µM (active) and 2.66 µM (active), respectively.

In the case of `Cc1ccc(S(=O)(=O)Nc2cccc(C(=O)NCC(c3ccco3)N3CCCC3)c2)cc1F` (stereo unspecified), the EC50 in test [9] was 1.5 µM (active); in test [2], 0.149 µM (active).

`COc1ccc(/C=c2\s/c(=C/C(=O)c3ccc(C)cc3)[nH]c2=O)c(OC)c1`: the EC50 in test [10] is > 99 µM (inactive); in test [11] it was 10.7 µM (active); in [12] it was > 99 µM (inactive). In addition, in [4], the IC50 was 1.76 µM (active).
